PMC12559995 (RSC Advances, 2025)

Columns and labels:
[1] = DPPH free radical scavenging assay; details: read-out: DPPH IC50; 0.1 mM DPPH, 30 min, 517 nm; mean ± SD
[2] = tested on: Plasmodium falciparum 3D7; test: Antimalarial assay; type: cell-based
[3] = tested on: MCF-7 (human breast adenocarcinoma) cells; test: Cytotoxicity assay; type: cell-based; details: MCF7, 48 h, read-out: IC50 (MCF-7)
[4] = tested on: HEK-293 (normal human embryonic kidney) cells; test: Cytotoxicity assay; type: cell-based; details: HEK293, 48 h, read-out: IC50 (HEK-293)

| SMILES | IC50 [1] | IC50 ([2]; Plasmodium falciparum, 3D7, 72 h, read-out: Antimalarial IC50) | Selectivity index (HEK/IC50) ([2]; SI = IC50 (HEK-293)/IC50 (antimalarial)) | IC50 [3] | IC50 [4] |
| --- | --- | --- | --- | --- | --- |
| O=C1O[C@H]([C@@H](O)CO)C(O)=C1O [Ascorbic acid, reference compound] | 5.21 ± 0.06 µM | – | – | – | – |
| CC(=NNC(=S)NN=C(C(=NO)c1ccccc1)c1ccccc1)c1ccccc1C [HBMT-MA7, N'-[2-(Hydroxyimino)-1,2-diphenylethylidene]-2-[1-(o-tolyl)ethylidene]hydrazine-1-carbothiohydrazide] | 10.5 ± 0.19 µM | 2.91 ± 0.14 µM | 23.4 | 29.7 ± 1 µM | 68.2 ± 1.8 µM |
